In general, IC50 refers to the concentration that gives 50% inhibition.

Structures are written as SMILES. Values after ≈ are worked out from the molar mass of the structure shown. Active and inactive are the calls of the source. The rule behind the calls is not given here.

A short description of data set [1]: Thermodynamic solubility of the compound in phosphate buffer at pH 7.4 at 1 mg after 10 mins by HPLC -UV analysis. It counts as physicochemical. The note with it: read-out: Therm_solubility.
Data set [2] relates to MCF7. Nature of the data set: Antiproliferative activity against human MCF7 cells after 3 days by MTT assay. The note with it: MCF7, 72 h. Format: functional, cell-based. For orientation: Tetrazolium dyes change colour on reduction, which living cells bring about.
Data set [3] concerns HeLa. In words: Antiproliferative activity against human HeLa cells after 3 days by MTT assay. Format: functional, cell-based. To be noted: 72 h.
Data set [4] relates to Bel-7402. Nature of the data set: Antiproliferative activity against human Bel7402 cells after 3 days by MTT assay. It counts as functional, cell-based. The note with it: Bel-7402, 72 h.
For data set [5], the system named is MCF7. Nature of the data set: Induction of autophagy in human MCF7 cells assessed as autophagic cells at 10 uM after 72 hrs by MDC staining-based flow cytometry (reference value: 2.14%). Format: functional.
The test system of data set [6] is MCF7. In words: Induction of autophagy in human MCF7 cells assessed as autophagic cells at 5 uM after 72 hrs by MDC staining-based flow cytometry (reference value: 2.14%). It counts as functional. In general terms: A flow cytometer gives signals particle by particle.
The test system of data set [7] is MCF7. Nature of the data set: Ratio of IC50 for cisplatin to compound IC50 for human MCF7 cells after 3 days by MTT assay. It counts as functional.
Data set [8] deals with MCF7. In words: Induction of autophagy in human MCF7 cells assessed as increase in cytoplasmic acidic vesicular organelles at 5 to 10 uM after 72 hrs by AO staining-based fluorescence microscopic analysis. It counts as functional, cell-based.
For data set [9], the system named is MCF7. Nature of the data set: Induction of autophagy in human MCF7 cells assessed as decrease in LC3-1 level at 5 to 10 uM after 48 hrs by Western blot analysis. Format: functional, cell-based.
Data set [10] has as its system MCF7. Nature of the data set: Selectivity ratio of IC50 for human HeLa cells to IC50 for human MCF7 cells. Format: functional.
The test system of data set [11] is MCF7. Nature of the data set: Selectivity ratio of IC50 for human […] cells to IC50 for human MCF7 cells. Format: functional.
Data set [12] deals with MCF7. In words: Induction of autophagy in human MCF7 cells assessed as increase in cytoplasmic acidic vesicular organelles at 5 to 10 uM after 72 hrs by MDC staining-based fluorescence microscopic analysis. It counts as functional, cell-based.
The test system of data set [13] is MCF7. Nature of the data set: Cell cycle arrest in human MCF7 cells assessed as accumulation at G0/G1 phase at 10 uM after 48 hrs by propidium iodide staining-based flow cytometric analysis (reference value: 60.01%). It counts as functional.
The test system of data set [14] is MCF7. Nature of the data set: Cell cycle arrest in human MCF7 cells assessed as accumulation at subG1 phase at 10 uM after 72 hrs by propidium iodide staining-based flow cytometric analysis (reference value: 4.11%). Format: functional.
Data set [15] concerns MCF7. Nature of the data set: Induction of autophagy in human MCF7 cells assessed as increase in […] level at 5 to 10 uM after 48 hrs by Western blot analysis. It counts as functional, cell-based. On the technique in general: In western blotting, separated proteins are transferred to a membrane and probed.
The subject of data set [16] is MCF7. In words: Cell cycle arrest in human MCF7 cells assessed as accumulation at G2/M phase at 10 uM after 24 hrs by propidium iodide staining-based flow cytometric analysis (reference value: 20.62%). Format: functional.
The subject of data set [17] is MCF7. In words: Cell cycle arrest in human MCF7 cells assessed as accumulation at G2/M phase at 10 uM after 72 hrs by propidium iodide staining-based flow cytometric analysis (reference value: 20.62%). It counts as functional.
Data set [18] relates to MCF7. In words: Cell cycle arrest in human MCF7 cells assessed as accumulation at S phase at 10 uM after 48 hrs by propidium iodide staining-based flow cytometric analysis (reference value: 14.35%). Format: functional.
Data set [19] concerns MCF7. In words: Cell cycle arrest in human MCF7 cells assessed as accumulation at G2/M phase at 10 uM after 48 hrs by propidium iodide staining-based flow cytometric analysis (reference value: 20.62%). It counts as functional.
For data set [20], the system named is MCF7. In words: Cell cycle arrest in human MCF7 cells assessed as accumulation at S phase at 10 uM after 24 hrs by propidium iodide staining-based flow cytometric analysis (reference value: 14.35%). Format: functional.
The test system of data set [21] is MCF7. Nature of the data set: Cell cycle arrest in human MCF7 cells assessed as accumulation at subG1 phase at 10 uM after 48 hrs by propidium iodide staining-based flow cytometric analysis (reference value: 4.11%). Format: functional.
The test system of data set [22] is MCF7. In words: Cell cycle arrest in human MCF7 cells assessed as accumulation at subG1 phase at 10 uM after 24 hrs by propidium iodide staining-based flow cytometric analysis (reference value: 4.11%). It counts as functional.
The subject of data set [23] is MCF7. In words: Cell cycle arrest in human MCF7 cells assessed as accumulation at G0/G1 phase at 10 uM after 24 hrs by propidium iodide staining-based flow cytometric analysis (reference value: 60.01%). It counts as functional.
For data set [24], the system named is MCF7. Nature of the data set: Cell cycle arrest in human MCF7 cells assessed as accumulation at S phase at 10 uM after 72 hrs by propidium iodide staining-based flow cytometric analysis (reference value: 14.35%). It counts as functional.
The subject of data set [25] is MCF7. In words: Cell cycle arrest in human MCF7 cells assessed as accumulation at G0/G1 phase at 10 uM after 72 hrs by propidium iodide staining-based flow cytometric analysis (reference value: 60.01%). It counts as functional.

As to `O=C(Cc1ccccc1O)N[C@H](Cc1ccccc1)C(=O)OC[C@H](Cc1ccccc1)NC(=O)c1ccccc1`, the solubility thermodynamic at 10 min in data set [1] came to 524 µg/mL (≈ 977 µM). The IC50 in [2] was determined as 62.9 µM; in data set [3] it was 53.3 µM; in data set [4] it was 54 µM.

Regarding `CC(=O)N[C@@H](Cc1ccccc1)C(=O)OC[C@H](Cc1ccccc1)NC(=O)c1ccccc1`, in data set [1], the solubility thermodynamic at 10 min is 560 µg/mL (≈ 1260 µM). In addition, the IC50 in data set [2] was 88.4 µM; in data set [3], more than 100 µM; in [4], more than 100 µM.

For the molecule `CC(=O)N[C@H](COC(=O)[C@H](Cc1ccccc1)NC(=O)c1ccccc1)Cc1ccccc1`, in data set [1], the solubility thermodynamic at 10 min came to 485 µg/mL (≈ 1090 µM). In addition, the results for the IC50 in data set [2], in [3] and in data set [4] were 48.6 µM, 71.5 µM and 79.1 µM, respectively.

Take `C[C@@H](COC(=O)[C@@H](Cc1ccccc1)NC(=O)c1ccccc1)NC(=O)c1ccccc1`: in [1], the solubility thermodynamic at 10 min amounted to 236 µg/mL (≈ 549 µM). For the same molecule, the IC50 in [2], in data set [3] and in data set [4] was more than 100 µM throughout.

`O=C(N[C@H](COC(=O)[C@H](Cc1ccccc1)NC(=O)c1ccccc1OCc1ccccc1)Cc1ccccc1)c1ccccc1`: the solubility thermodynamic at 10 min in [1] came out at 26.3 µg/mL (≈ 43 µM). Further, the IC50 in data set [2], in data set [3] and in data set [4] was more than 100 µM throughout.

In the case of `O=C(N[C@H](COC(=O)[C@@H](Cc1ccccc1)NC(=O)c1ccc(O)cc1)Cc1ccccc1)c1ccccc1`, the solubility thermodynamic at 10 min in [1] is 302 µg/mL (≈ 578 µM). Further, the concentration for half-maximal inhibition (IC50) is 53.2 µM in data set [2], 59 µM in data set [3] and 68.7 µM in [4].

As to `CC(=O)N[C@H](Cc1ccccc1)C(=O)OC[C@H](Cc1ccccc1)NC(=O)c1ccccc1`, the solubility thermodynamic at 10 min in data set [1] worked out at 207 µg/mL (≈ 466 µM). Moreover, the IC50 in [2] worked out at 79.9 µM; in data set [3] it was 56.4 µM; in [4] it was 69.8 µM.

Take `C[C@@H](NC(=O)c1ccccc1)C(=O)OC[C@H](Cc1ccccc1)NC(=O)c1ccccc1`: the solubility thermodynamic at 10 min in data set [1] is 192 µg/mL (≈ 445 µM). The IC50 in data set [2], in [3] and in data set [4] was more than 100 µM throughout.

As to `O=C(N[C@H](COC(=O)[C@H](Cc1ccccc1)NC(=O)c1ccc(O)cc1)Cc1ccccc1)c1ccccc1`, in data set [1], the solubility thermodynamic at 10 min was determined as 370 µg/mL (≈ 709 µM). The IC50 in [2], in data set [3] and in data set [4] was more than 100 µM each time.

With `O=C(N[C@H](COC(=O)[C@H](Cc1ccccc1)NC(=O)c1ccccc1O)Cc1ccccc1)c1ccccc1`, the solubility thermodynamic at 10 min in data set [1] amounted to 18.2 µg/mL (≈ 34.7 µM). In addition, the concentration for half-maximal inhibition (IC50) in data set [2] turned out to be 49 µM; in data set [3], 30.4 µM; in [4] it was 64.8 µM.

For `O=C(N[C@H](COC(=O)[C@@H](Cc1ccccc1)NC(=O)c1cccc(O)c1)Cc1ccccc1)c1ccccc1`, the solubility thermodynamic at 10 min in data set [1] turned out to be 2000 µg/mL (≈ 3820 µM). In addition, the IC50 in [2] worked out at 42.9 µM; in data set [3], 26.1 µM; in data set [4] it was 40.2 µM.

In the case of `O=C(Cc1ccccc1O)N[C@@H](Cc1ccccc1)C(=O)OC[C@H](Cc1ccccc1)NC(=O)c1ccccc1`, the solubility thermodynamic at 10 min in data set [1] came to 349 µg/mL (≈ 650 µM). In addition, the IC50 in [2], in data set [3] and in data set [4] was more than 100 µM each time.

On to `O=C(Cc1ccccc1OCc1ccccc1)N[C@@H](Cc1ccccc1)C(=O)OC[C@H](Cc1ccccc1)NC(=O)c1ccccc1`, for which the solubility thermodynamic at 10 min in [1] was determined as 223 µg/mL (≈ 356 µM). Moreover, the IC50 in data set [2], in [3] and in [4] was more than 100 µM throughout.

For the molecule `O=C(Cc1ccccc1OCc1ccccc1)N[C@H](Cc1ccccc1)C(=O)OC[C@@H](Cc1ccccc1)NC(=O)c1ccccc1`, the Activity in data set [5] came to 52.62%; in data set [6] it was 15.62%; in data set [13], 59.4%; in [14], 2.83%; in data set [16], 21.65%; in data set [17], 20.38%. Moreover, the Activity in data set [18] is 17.85%; in data set [19], 17.07%; in data set [20], 15.98%; in data set [21] it was 3.16%; in data set [22], 1.76%; in [23] it was 59.85%. Besides, the Activity is 16.69% in [24] and 57.08% in data set [25]. The “Ratio IC50” value in [7] was found to be 1.5; in [10], 5; in data set [11], 5. For the same molecule, the outcome in data set [8], in data set [9], in data set [12] and in data set [15] was Active. In addition, the solubility thermodynamic at 10 min in [1] amounted to 223 µg/mL (≈ 356 µM). For the same molecule, the half-inhibitory concentration (IC50) in data set [2] was determined as 6.06 µM; in [3] it was 27 µM; in data set [4], 32.6 µM.

`C[C@@H](COC(=O)[C@H](Cc1ccccc1)NC(=O)c1ccccc1)NC(=O)c1ccccc1`: the solubility thermodynamic at 10 min in data set [1] amounted to 513 µg/mL (≈ 1190 µM). In addition, the IC50 in data set [2], in data set [3] and in data set [4] was more than 100 µM throughout.

Consider `O=C(Cc1ccc(O)cc1)N[C@@H](Cc1ccccc1)C(=O)OC[C@H](Cc1ccccc1)NC(=O)c1ccccc1`, for which, in data set [1], the solubility thermodynamic at 10 min was found to be 109 µg/mL (≈ 204 µM). Moreover, the results for the half-maximal inhibitory concentration (IC50) in data set [2], in [3] and in data set [4] were 79.6 µM, 62.7 µM and 94.4 µM, respectively.

For the origin of these results see ChEMBL document CHEMBL1955745, “Synthesis and in vitro antitumor activity of asperphenamate derivatives as autophagy inducer” (Bioorg Med Chem Lett, 2012).
